Measurements from PubChem BioAssay AID1963867 (Molecular Pharmacology Branch, DTP, NCI, 2024).

Tested on: KRAS-mutant PDC tumor spheroid with HUVEC/MSC, viability
Assay: Anticancer human tumor 327498-153-R-J2-PDC patient-derived uterine carcinosarcoma cell line growth inhibition [KRAS2]
Settings: for IC50: curve of first compound; for viability, T/C: stronger effect = lower value
Outline: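 Combination screen of spheroid viability in tumor-cell co-cultures with endothelial (HUVEC) and mesenchymal stem cell stroma. Each agent was tested in half-log dilutions, topping at clinical Cmax or at 10 microM without a known Cmax.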

[1] = second compound 0.1 µM, first compound 0.0316 µM
[2] = second compound 0.316 µM, first compound 0.0316 µM
[3] = second compound 1 µM, first compound 0.0316 µM
[4] = second compound 3.16 µM, first compound 0.0316 µM
[5] = second compound 10 µM, first compound 0.0316 µM
[6] = second compound 0.1 µM, first compound 0.1 µM
[7] = second compound 0.1 µM, first compound 0.316 µM
[8] = second compound 0.1 µM, first compound 1 µM
[9] = second compound 0.1 µM, first compound 3.16 µM
[10] = second compound 0.1 µM, first compound 10 µM
[11] = second compound 0.316 µM, first compound 0.1 µM
[12] = second compound 0.316 µM, first compound 0.316 µM
[13] = second compound 0.316 µM, first compound 1 µM
[14] = second compound 0.316 µM, first compound 3.16 µM
[15] = second compound 0.316 µM, first compound 10 µM
[16] = second compound 1 µM, first compound 0.1 µM
[17] = second compound 1 µM, first compound 0.316 µM
[18] = second compound 1 µM, first compound 1 µM
[19] = second compound 1 µM, first compound 3.16 µM
[20] = second compound 1 µM, first compound 10 µM
[21] = second compound 3.16 µM, first compound 0.1 µM
[22] = second compound 3.16 µM, first compound 0.316 µM
[23] = second compound 3.16 µM, first compound 1 µM
[24] = second compound 3.16 µM, first compound 3.16 µM
[25] = second compound 3.16 µM, first compound 10 µM
[26] = second compound 10 µM, first compound 0.1 µM
[27] = second compound 10 µM, first compound 0.316 µM
[28] = second compound 10 µM, first compound 1 µM
[29] = second compound 10 µM, first compound 3.16 µM
[30] = second compound 10 µM, first compound 10 µM
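Also: spheroids exposed to agents for seven days before reading.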
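For viability, T/C in this document: 100% = DMSO vehicle wells so lower means fewer viable cells.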

## CC(=O)Nc1cccc(-n2c(=O)n(C3CC3)c(=O)c3c(Nc4ccc(I)cc4F)n(C)c(=O)c(C)c32)c1 + CNCc1ccccc1-c1csc(C(C)Nc2nc(C)nc3cc(OC)c(OC)cc23)c1
Second compound 0.1 µM
  IC50: 4.34 nM
Second compound 0.316 µM
  IC50: 4.68 nM
Second compound 1 µM
  IC50: 2.35 nM
Second compound 3.16 µM
  IC50: < 0.1 nM
Second compound 10 µM
  IC50: < 0.1 nM
Second compound 0.1 µM, first compound 0.0001 µM
  viability, T/C: 84%
Second compound 0.1 µM, first compound 0.000316 µM
  viability, T/C: 67%
Second compound 0.1 µM, first compound 0.001 µM
  viability, T/C: 61.8%
Second compound 0.1 µM, first compound 0.00316 µM
  viability, T/C: 56.1%
Second compound 0.1 µM, first compound 0.01 µM
  viability, T/C: 43.9%
[1]
  viability, T/C: 29.6%
Second compound 0.316 µM, first compound 0.0001 µM
  viability, T/C: 71.6%
Second compound 0.316 µM, first compound 0.000316 µM
  viability, T/C: 67.8%
Second compound 0.316 µM, first compound 0.001 µM
  viability, T/C: 58.4%
Second compound 0.316 µM, first compound 0.00316 µM
  viability, T/C: 51.3%
Second compound 0.316 µM, first compound 0.01 µM
  viability, T/C: 48.5%
[2]
  viability, T/C: 27%
Second compound 1 µM, first compound 0.0001 µM
  viability, T/C: 70.9%
Second compound 1 µM, first compound 0.000316 µM
  viability, T/C: 60.8%
Second compound 1 µM, first compound 0.001 µM
  viability, T/C: 53.9%
Second compound 1 µM, first compound 0.00316 µM
  viability, T/C: 49.3%
Second compound 1 µM, first compound 0.01 µM
  viability, T/C: 41.9%
[3]
  viability, T/C: 23.6%
Second compound 3.16 µM, first compound 0.0001 µM
  viability, T/C: 37.2%
Second compound 3.16 µM, first compound 0.000316 µM
  viability, T/C: 38.7%
Second compound 3.16 µM, first compound 0.001 µM
  viability, T/C: 22.7%
Second compound 3.16 µM, first compound 0.00316 µM
  viability, T/C: 0.12%
Second compound 3.16 µM, first compound 0.01 µM
  viability, T/C: 5.68%
[4]
  viability, T/C: 2.54%
Second compound 10 µM, first compound 0.0001 µM
  viability, T/C: 0.18%
Second compound 10 µM, first compound 0.000316 µM
  viability, T/C: 0.87%
Second compound 10 µM, first compound 0.001 µM
  viability, T/C: 0.14%
Second compound 10 µM, first compound 0.00316 µM
  viability, T/C: 0.14%
Second compound 10 µM, first compound 0.01 µM
  viability, T/C: 0.15%
[5]
  viability, T/C: 0.21%

## COC(=O)c1ccc2c(C(=Nc3ccc(N(C)C(=O)CN4CCN(C)CC4)cc3)c3ccccc3)c(O)[nH]c2c1 + CNCc1ccccc1-c1csc(C(C)Nc2nc(C)nc3cc(OC)c(OC)cc23)c1
Second compound 0.1 µM
  IC50: 519 nM
Second compound 0.316 µM
  IC50: 308 nM
Second compound 1 µM
  IC50: 153 nM
Second compound 3.16 µM
  IC50: < 31.6 nM
Second compound 10 µM
  IC50: < 31.6 nM
[1]
  viability, T/C: 73.5%
[6]
  viability, T/C: 69.9%
[7]
  viability, T/C: 58.6%
[8]
  viability, T/C: 38.7%
[9]
  viability, T/C: 10.9%
[10]
  viability, T/C: 8.59%
[2]
  viability, T/C: 62.9%
[11]
  viability, T/C: 61.4%
[12]
  viability, T/C: 48.8%
[13]
  viability, T/C: 22.6%
[14]
  viability, T/C: 0.98%
[15]
  viability, T/C: 1.62%
[3]
  viability, T/C: 60.9%
[16]
  viability, T/C: 53%
[17]
  viability, T/C: 41.5%
[18]
  viability, T/C: 18.7%
[19]
  viability, T/C: 0.06%
[20]
  viability, T/C: 0.11%
[4]
  viability, T/C: 0.1%
[21]
  viability, T/C: 0.13%
[22]
  viability, T/C: 0.08%
[23]
  viability, T/C: 0.15%
[24]
  viability, T/C: 0.04%
[25]
  viability, T/C: 0.11%
[5]
  viability, T/C: 0.43%
[26]
  viability, T/C: 0.37%
[27]
  viability, T/C: 0.36%
[28]
  viability, T/C: 0.1%
[29]
  viability, T/C: 1.07%
[30]
  viability, T/C: 0.16%

## COc1cc(Nc2ncc3c(n2)-c2ccc(Cl)cc2C(c2c(F)cccc2OC)=NC3)ccc1C(=O)O + CNCc1ccccc1-c1csc(C(C)Nc2nc(C)nc3cc(OC)c(OC)cc23)c1
Second compound 0.1 µM
  IC50: < 31.6 nM
Second compound 0.316 µM
  IC50: < 31.6 nM
Second compound 1 µM
  IC50: < 31.6 nM
Second compound 3.16 µM
  IC50: < 31.6 nM
Second compound 10 µM
  IC50: < 31.6 nM
[1]
  viability, T/C: 16.1%
[6]
  viability, T/C: 10.8%
[7]
  viability, T/C: 9.69%
[8]
  viability, T/C: 10.2%
[9]
  viability, T/C: 12%
[10]
  viability, T/C: 12.3%
[2]
  viability, T/C: 15.6%
[11]
  viability, T/C: 11.1%
[12]
  viability, T/C: 10.5%
[13]
  viability, T/C: 10.8%
[14]
  viability, T/C: 12.9%
[15]
  viability, T/C: 12.8%
[3]
  viability, T/C: 14.7%
[16]
  viability, T/C: 10.7%
[17]
  viability, T/C: 8.64%
[18]
  viability, T/C: 8.26%
[19]
  viability, T/C: 11.9%
[20]
  viability, T/C: 11.6%
[4]
  viability, T/C: 0.1%
[21]
  viability, T/C: 0.06%
[22]
  viability, T/C: 0.05%
[23]
  viability, T/C: 0.05%
[24]
  viability, T/C: 0.06%
[25]
  viability, T/C: 0.15%
[5]
  viability, T/C: 0.14%
[26]
  viability, T/C: 0.13%
[27]
  viability, T/C: 0.14%
[28]
  viability, T/C: 0.13%
[29]
  viability, T/C: 0.63%
[30]
  viability, T/C: 0.22%

## O=C(c1cc(Cc2n[nH]c(=O)c3ccccc23)ccc1F)N1CCN(C(=O)C2CC2)CC1 + CNCc1ccccc1-c1csc(C(C)Nc2nc(C)nc3cc(OC)c(OC)cc23)c1
Second compound 0.1 µM
  IC50: 2060 nM
Second compound 0.316 µM
  IC50: 1810 nM
Second compound 1 µM
  IC50: 1750 nM
Second compound 3.16 µM
  IC50: 411 nM
Second compound 10 µM
  IC50: < 31.6 nM
[1]
  viability, T/C: 83.4%
[6]
  viability, T/C: 80.3%
[7]
  viability, T/C: 82.8%
[8]
  viability, T/C: 73.6%
[9]
  viability, T/C: 36.1%
[10]
  viability, T/C: 19.2%
[2]
  viability, T/C: 86.6%
[11]
  viability, T/C: 87.4%
[12]
  viability, T/C: 76.7%
[13]
  viability, T/C: 69.5%
[14]
  viability, T/C: 32.4%
[15]
  viability, T/C: 19.1%
[3]
  viability, T/C: 90.8%
[16]
  viability, T/C: 81.8%
[17]
  viability, T/C: 81.3%
[18]
  viability, T/C: 66.3%
[19]
  viability, T/C: 33.2%
[20]
  viability, T/C: 19.1%
[4]
  viability, T/C: 57.7%
[21]
  viability, T/C: 67.8%
[22]
  viability, T/C: 62%
[23]
  viability, T/C: 0.7%
[24]
  viability, T/C: 25.9%
[25]
  viability, T/C: 0.17%
[5]
  viability, T/C: 2.32%
[26]
  viability, T/C: 0.2%
[27]
  viability, T/C: 1.62%
[28]
  viability, T/C: 0.19%
[29]
  viability, T/C: 0.15%
[30]
  viability, T/C: 1.22%
